The source of these data is ChEMBL document CHEMBL3351836, “Inhibition of carbonic anhydrase isoforms I, II, IX and XII with novel Schiff bases: identification of selective inhibitors for the tumor-associated isoforms over the cytosolic ones” (Bioorg Med Chem, 2014).

The test deals with Carbonic anhydrase 9 (Homo sapiens, UniProt Q16790). Description: Inhibition of human CA-9 after 15 mins by stopped-flow CO2 hydration method.
The compound `NS(=O)(=O)c1ccc(/N=C/c2ccc(Br)cc2O)cc1` returned a Ki of 28.1 nM.

On to `NS(=O)(=O)c1ccc(CC/N=C/c2c(F)c(F)cc(F)c2F)cc1`, for which the affinity, expressed as Ki, was 213 nM.

In turn, `NS(=O)(=O)c1ccc(CC/N=C/c2ccc(S(=O)(=O)O)o2)cc1` registered an inhibitory constant (Ki) of 193 nM.

`CSc1ccc(/C=N/CCc2ccc(S(N)(=O)=O)cc2)cc1` came in with a Ki of 23.6 nM.

`NS(=O)(=O)c1ccc(CC/N=C/c2ccc(-c3ccccn3)cc2)cc1`: the inhibitory constant (Ki) came to 27.9 nM. The Ki values of the last two compounds are within 1.5-fold of each other.

With `NS(=O)(=O)c1ccc(CC/N=C/c2c[nH]c3ccc(Br)cc23)cc1`, the Ki stood at 1880 nM.

In turn, `COc1ccc(/C=N/CCc2ccc(S(N)(=O)=O)cc2)c(O)c1` gave a Ki of 1870 nM.

Regarding `NS(=O)(=O)c1ccc(CC/N=C/c2ccc(Br)cc2O)cc1`, the Ki turned out to be 106 nM.

In turn, `NS(=O)(=O)c1ccc(/N=C/c2ccco2)c(F)c1` had a Ki of 165 nM.

On to `NS(=O)(=O)c1ccc(/N=C/c2csc3ccccc23)cc1`, for which the Ki is 197 nM.

`NS(=O)(=O)c1ccc(/N=C/c2ccc(-c3ccccc3)cc2)c(F)c1`: the affinity corresponds to a Ki of 113 nM.

The compound `NS(=O)(=O)c1ccc(CC/N=C/c2cccc(Br)c2O)cc1` yielded an inhibition constant (Ki) of 251 nM.

With `NS(=O)(=O)c1ccc(/N=C/c2ccc(-c3ccccn3)cc2)cc1`, the inhibition constant Ki worked out at 162 nM. Against the preceding compound, the Ki is about 1.5-fold lower.

`N#Cc1ccc(/C=N/CCc2ccc(S(N)(=O)=O)cc2)cc1` came in with an inhibition constant (Ki) of 18.5 nM.

The compound `NS(=O)(=O)c1ccc(CC/N=C/c2ccc(-c3ccccc3)cc2)cc1` returned an inhibition constant Ki of 244 nM.

The compound `COc1cc([N+](=O)[O-])ccc1/C=N/CCc1ccc(S(N)(=O)=O)cc1` came in with an inhibition constant (Ki) of 154 nM.
